How the values were obtained:
Format in all cases: cell-based, dog
canine cartilage [1] = assay: Proteoglycan synthesis, 35SO4 incorporation into cartilage matrix; conditions: no catabolic stimuli
Protocol: (§1) To assess the potential effect of n-3 fatty acids on protein and proteoglycan metabolism in canine cartilage, cultures were set up as described in Example 1 except for the final 4 days of culture, no catabolic stimuli were added (i.e., all “control” cultures). During the final 24 hours of culture (1) ^35SO4, or (ii) ^35S-methionine and ^35S-cysteine, were added to the medium to radiolabel newly synthesized proteoglycans and proteins, respectively. The incorporation of radiolabel into the cartilage matrix was measured at the termination of culture. No attempt was made to quantitate loss of radiolabelled material from the cartilage over the 24-hour labeling period. The mean and standard deviation of the incorporation of ^35SO4 (“PG”) or ^35S-methionine and ^35S-cysteine (“PROT”) as DPM/mg wet weight are shown in Table 5 below, […]

canine cartilage [2] = assay: Protein synthesis, 35S-methionine and 35S-cysteine incorporation into cartilage matrix; conditions: no catabolic stimuli
Protocol: as §1

[3] = test system: canine articular cartilage explants; assay: Glycosaminoglycan (GAG) release from cultured canine cartilage explants
Protocol: This example illustrates the release of glycosaminoglycan elicited by omega-3 fatty acids in cultured canine cartilage tissue.
Articular cartilage was obtained from left and right stifles (both femoral condyles and tibial plateau) of dogs. Cartilage explants cultured for 3 days in medium with 10% fetal bovine serum, then washed 3 times in serum free medium. Explants then cultured for 6 days in serum free medium containing 0, 100 or 300 μg/ml n3 fatty acid (EPA, ALA or DHA). After this period in fatty acid medium, all explants were washed 3 times in fatty acid free/serum free medium. Explants were then cultured individually for 4 days in 1 ml of fatty acid and serum free medium containing no additives (C), 10^−6M retinoic acid (RA) or 50 ng/ml oncostatin M (OSM). Note that not all treatments were possible on all dogs because of cartilage availability. The release of proteoglycan into the medium (μg/mg wet weight) was measured at the termination of culture. In the tables below, the mean and standard deviation of glycosaminoglycan (GAG) release for the triplicate cultures for each of the 4 dogs are given. In addition, the media lactate (μg/mg wet weight) concentrations were given for each treatment.

CC/C=C\C/C=C\C/C=C\CCCCCCCC(=O)O [ALA, alpha-linolenic acid]
PG Mean (incorporation of 35SO4) (canine cartilage [1]; 100 μg/ml): 246.333 DPM/mg wet weight | PG Mean (incorporation of 35SO4) (canine cartilage [1]; 300 μg/ml): 443.0 DPM/mg wet weight | PROT Mean (incorporation of 35S-methionine and 35S-cysteine) (canine cartilage [2]; 100 μg/ml): 503.667 DPM/mg wet weight | PROT Mean (incorporation of 35S-methionine and 35S-cysteine) (canine cartilage [2]; 300 μg/ml): 393.667 DPM/mg wet weight | GAG Mean ([3]; Dog 2, C, 100 μg/ml): 1.12 μg/mg wet weight | GAG Mean ([3]; Dog 2, C, 300 μg/ml): .993 μg/mg wet weight | change in GAG release ([3]; Dog 2, OSM treated cultures): not ALA or DHA significantly decreased | GAG Mean ([3]; Dog 2, OSM, 100 μg/ml): 8.497 μg/mg wet weight | GAG Mean ([3]; Dog 2, OSM, 300 μg/ml): 6.42 μg/mg wet weight | GAG Mean ([3]; Dog 3, C, 100 μg/ml): 2.117 μg/mg wet weight | GAG Mean ([3]; Dog 3, C, 300 μg/ml): 2.447 μg/mg wet weight | GAG Mean ([3]; Dog 3, OSM, 100 μg/ml): 22.033 μg/mg wet weight | GAG Mean ([3]; Dog 3, OSM, 300 μg/ml): 23.467 μg/mg wet weight | GAG Mean ([3]; Dog 3, RA, 100 μg/ml): 20.44 μg/mg wet weight | GAG Mean ([3]; Dog 3, RA, 300 μg/ml): 24.467 μg/mg wet weight | GAG Mean ([3]; Dog 4, C, 100 μg/ml): 2.103 μg/mg wet weight | GAG Mean ([3]; Dog 4, C, 300 μg/ml): 1.533 μg/mg wet weight | GAG Mean ([3]; Dog 4, OSM, 100 μg/ml): 11.7 μg/mg wet weight | GAG Mean ([3]; Dog 4, OSM, 300 μg/ml): 19.557 μg/mg wet weight | GAG Mean ([3]; Dog 4, RA, 100 μg/ml): 12.547 μg/mg wet weight | GAG Mean ([3]; Dog 4, RA, 300 μg/ml): 14.093 μg/mg wet weight

CC/C=C\C/C=C\C/C=C\C/C=C\C/C=C\C/C=C\CCC(=O)O [DHA, Docosahexaenoic acid]
PG Mean (incorporation of 35SO4) (canine cartilage [1]; 100 μg/ml): 156.0 DPM/mg wet weight | PG Mean (incorporation of 35SO4) (canine cartilage [1]; 300 μg/ml): 123.333 DPM/mg wet weight | PROT Mean (incorporation of 35S-methionine and 35S-cysteine) (canine cartilage [2]; 100 μg/ml): 503.667 DPM/mg wet weight | PROT Mean (incorporation of 35S-methionine and 35S-cysteine) (canine cartilage [2]; 300 μg/ml): 564.333 DPM/mg wet weight | GAG Mean ([3]; Dog 2, C, 100 μg/ml): .640 μg/mg wet weight | GAG Mean ([3]; Dog 2, C, 300 μg/ml): .843 μg/mg wet weight | GAG Mean ([3]; Dog 2, OSM, 100 μg/ml): 8.567 μg/mg wet weight | GAG Mean ([3]; Dog 2, OSM, 300 μg/ml): 6.073 μg/mg wet weight | GAG Mean ([3]; Dog 3, C, 100 μg/ml): 1.903 μg/mg wet weight | GAG Mean ([3]; Dog 3, C, 300 μg/ml): 1.55 μg/mg wet weight | GAG Mean ([3]; Dog 3, OSM, 100 μg/ml): 11.667 μg/mg wet weight | GAG Mean ([3]; Dog 3, OSM, 300 μg/ml): 11.630 μg/mg wet weight | GAG Mean ([3]; Dog 3, RA, 100 μg/ml): 21.093 μg/mg wet weight | GAG Mean ([3]; Dog 3, RA, 300 μg/ml): 19.457 μg/mg wet weight | GAG Mean ([3]; Dog 4, C, 100 μg/ml): 2.343 μg/mg wet weight | GAG Mean ([3]; Dog 4, C, 300 μg/ml): 2.307 μg/mg wet weight | GAG Mean ([3]; Dog 4, OSM, 100 μg/ml): 24.967 μg/mg wet weight | GAG Mean ([3]; Dog 4, OSM, 300 μg/ml): 16.4 μg/mg wet weight | GAG Mean ([3]; Dog 4, RA, 100 μg/ml): 11.28 μg/mg wet weight | GAG Mean ([3]; Dog 4, RA, 300 μg/ml): 11.3 μg/mg wet weight

CC/C=C\C/C=C\C/C=C\C/C=C\C/C=C\CCCC(=O)O [EPA, Eicosapentaenoic acid]
PG Mean (incorporation of 35SO4) (canine cartilage [1]; 100 μg/ml): 537.333 DPM/mg wet weight | PG Mean (incorporation of 35SO4) (canine cartilage [1]; 300 μg/ml): 275.667 DPM/mg wet weight | PROT Mean (incorporation of 35S-methionine and 35S-cysteine) (canine cartilage [2]; 100 μg/ml): 442.0 DPM/mg wet weight | PROT Mean (incorporation of 35S-methionine and 35S-cysteine) (canine cartilage [2]; 300 μg/ml): 504.0 DPM/mg wet weight | GAG Mean ([3]; Dog 1, C (no additives), 100 μg/ml): 1.590 μg/mg wet weight | GAG Mean ([3]; Dog 1, C (no additives), 300 μg/ml): 1.036 μg/mg wet weight | GAG Mean ([3]; Dog 1, OSM (50 ng/ml oncostatin M), 100 μg/ml): 6.293 μg/mg wet weight | GAG Mean ([3]; Dog 1, OSM, 300 μg/ml): 2.167 μg/mg wet weight | GAG Mean ([3]; Dog 1, RA (10^−6M retinoic acid), 100 μg/ml): 8.677 μg/mg wet weight | GAG Mean ([3]; Dog 1, RA, 300 μg/ml): 1.593 μg/mg wet weight | GAG Mean ([3]; Dog 2, C, 100 μg/ml): .340 μg/mg wet weight | GAG Mean ([3]; Dog 2, C, 300 μg/ml): .573 μg/mg wet weight | GAG Mean ([3]; Dog 2, OSM, 100 μg/ml): 5.25 μg/mg wet weight | GAG Mean ([3]; Dog 2, OSM, 300 μg/ml): 2.83 μg/mg wet weight | GAG Mean ([3]; Dog 3, C, 100 μg/ml): 1.673 μg/mg wet weight | GAG Mean ([3]; Dog 3, C, 300 μg/ml): 1.567 μg/mg wet weight | GAG Mean ([3]; Dog 3, OSM, 100 μg/ml): 17.85 μg/mg wet weight | GAG Mean ([3]; Dog 3, OSM, 300 μg/ml): 8.1 μg/mg wet weight | GAG Mean ([3]; Dog 3, RA, 100 μg/ml): 16.223 μg/mg wet weight | GAG Mean ([3]; Dog 3, RA, 300 μg/ml): 1.537 μg/mg wet weight | GAG Mean ([3]; Dog 4, C, 100 μg/ml): 2.687 μg/mg wet weight | GAG Mean ([3]; Dog 4, C, 300 μg/ml): 2.1 μg/mg wet weight | GAG Mean ([3]; Dog 4, OSM, 100 μg/ml): 15.883 μg/mg wet weight | GAG Mean ([3]; Dog 4, OSM, 300 μg/ml): 13.493 μg/mg wet weight | GAG Mean ([3]; Dog 4, RA, 100 μg/ml): 14.393 μg/mg wet weight | GAG Mean ([3]; Dog 4, RA, 300 μg/ml): 9.093 μg/mg wet weight
